Activity calls are given as the source filed them. The rule behind the calls is not given here.
Tests used:
HCT-116 [1] = assay: Antiproliferative activity against human HCT116 cells by SRB assay; assay type: functional, cell-based
MRC5 = assay: Antiproliferative activity against human MRC5 cells by SRB assay; assay type: cell-based
A549 = assay: Antiproliferative activity against human A549 cells by SRB assay; assay type: functional, cell-based
SK-OV-3 = assay: Antiproliferative activity against human SKOV3 cells by SRB assay; assay type: functional, cell-based
MDA-MB-468 = assay: Antiproliferative activity against human MDA-MB-468 cells by SRB assay; assay type: functional, cell-based
HeLa = assay: Antiproliferative activity against human HeLa cells by SRB assay; assay type: functional, cell-based
HCT-116 [2] = assay: Induction of apoptosis in human HCT116 cells assessed as necrotic cells at 0.5 uM after 24 hrs by annexin-V FITC/propidium iodide staining based flow cytometry (reference value: 0.03%); assay type: functional
HCT-116 [3] = assay: Cell cycle arrest in human HCT116 cells assessed as accumulation at G2/M phase at 125 nM after 48 hrs by […]propidium iodide staining based flow cytometry (reference value: 1.62%); assay type: functional
Homo sapiens = species on record: Homo sapiens; assay: Displacement of colchicine from tubulin (unknown origin) at 0.1 to 10 uM after 1 hr by fluorescence assay
HCT-116 [4] = assay: Induction of apoptosis in human HCT116 cells assessed as early apoptotic cells at 0.5 uM after 24 hrs by annexin-V FITC/propidium iodide staining based flow cytometry (reference value: 1.08%); assay type: functional
Bos taurus = species on record: Bos taurus; assay: Inhibition of bovine tubulin polymerization at 125 to 725 nM measured every 60 secs intervals for 60 mins in presence of GTP by fluorescence assay
HCT-116 [5] = assay: Cell cycle arrest in human HCT116 cells assessed as accumulation at S phase at 500 nM after 48 hrs by […]propidium iodide staining based flow cytometry (reference value: 8.93%); assay type: functional
HCT-116 [6] = assay: Induction of microtubule disruption in human HCT116 cells assessed as change in microtubule architecture at 0.5 uM after 24 hrs by DAPI staining based confocal microscopic method; assay type: functional, cell-based
HCT-116 [7] = assay: Cell cycle arrest in human HCT116 cells assessed as accumulation at G2/M phase at 500 nM after 48 hrs by […]propidium iodide staining based flow cytometry (reference value: 1.62%); assay type: functional
HCT-116 [8] = assay: Cell cycle arrest in human HCT116 cells assessed as accumulation at G1 phase at 125 nM after 48 hrs by […]propidium iodide staining based flow cytometry (reference value: 89.45%); assay type: functional
HCT-116 [9] = assay: Induction of Cyclin B1 accumulation in human HCT116 cells at 0.06 to 1 uM after 24 hrs by Western blot method; assay type: functional, cell-based
HCT-116 [10] = assay: Induction of apoptosis in human HCT116 cells assessed as viable cells at 0.5 uM after 24 hrs by annexin-V FITC/propidium iodide staining based flow cytometry (reference value: 97.93%); assay type: functional; conditions: HCT-116, 24 h, read-out: Activity
HCT-116 [11] = assay: Cell cycle arrest in human HCT116 cells assessed as accumulation at S phase at 125 nM after 48 hrs by […]propidium iodide staining based flow cytometry (reference value: 8.93%); assay type: functional
HCT-116 [12] = assay: Induction of apoptosis in human HCT116 cells assessed as late apoptotic cells at 0.5 uM after 24 hrs by annexin-V FITC/propidium iodide staining based flow cytometry (reference value: 0.96%); assay type: functional
HCT-116 [13] = assay: Cell cycle arrest in human HCT116 cells assessed as accumulation at G1 phase at 500 nM after 48 hrs by […]propidium iodide staining based flow cytometry (reference value: 89.45%); assay type: functional

Structure (SMILES)	IC50 (HCT-116 [1]) [µM]	IC50 (MRC5) [µM]	IC50 (A549) [µM]	IC50 (SK-OV-3) [µM]	IC50 (MDA-MB-468) [µM]	IC50 (HeLa) [µM]	also measured
CCOc1ccc(NC(=O)c2cc(-c3ccccc3)nc3ccccc23)cc1	49.1	> 50	> 50	45.8	> 50	> 50	
COc1ccc(NC(=O)c2cc(-c3ccc(C)cc3)nc3ccc(C)cc23)c(C)c1	11.9	> 50	30.1	12.3	46.1	20.4	
COc1ccc(NC(=O)c2cc(-c3cccc(C)c3)nc3ccccc23)cc1	9.4	> 50	30.5	12.4	> 50	30.2	
COc1cc(NC(=O)c2cc(-c3cccc(C)c3)nc3ccccc23)cc(OC)c1OC	11.6	42.3	17.8	10.6	32.7	5.3	
CSc1cccc(NC(=O)c2cc(-c3ccccc3)nc3ccccc23)c1	48.3	> 50	> 50	36.8	42.8	45.8	
COC(=O)C1=C(NC(=O)c2cc(-c3ccccc3)nc3ccccc23)NC=CN1	29.5	> 50	> 50	38.9	> 50	36.8	
COc1ccc(NC(=O)c2cc(-c3ccccc3)nc3ccc(Cl)cc23)cc1	24.8	> 50	> 50	20.3	> 50	40.2	
COc1cc(OC)c(NC(=O)c2cc(-c3ccccc3)nc3ccccc23)cc1Cl	> 50	> 50	> 50	36.3	42.8	42.6	
COc1ccc(NC(=O)c2cc(-c3ccc4c(c3)OCO4)nc3ccccc23)cc1	> 50	> 50	46.3	43.4	> 50	> 50	
C=CCNC(=S)NC(=O)c1cc(-c2ccccc2)nc2ccccc12	> 50	> 50	> 50	> 50	> 50	> 50	
COc1cc2c(c(OC)c1OC)-c1ccc(OC)c(=O)cc1[C@@H](NC(C)=O)CC2 [COLCHICINE]	0.01	0.09	0.02	0.05	0.06	0.5	
COc1ccc(NC(=O)c2cc(-c3ccccc3C)nc3ccccc23)c(C)c1	43.6	> 50	45.7	42.2	41.6	> 50	
COc1ccc(NC(=O)c2cc(-c3ccccc3)nc3ccccc23)cc1	4.9	40.5	20.5	12.8	34.7	32.5	
COc1cc(NC(=O)c2cc(-c3ccccc3)nc3ccc(Cl)cc23)cc(OC)c1OC	36.4	> 50	> 50	24.1	> 50	> 50	
COc1ccc(NC(=O)c2cc(-c3ccc(C)cc3)nc3ccccc23)c(C)c1	1.7	48.1	11.6	4.2	17.4	9.5	
COc1ccc(NC(=O)c2c3c(nc4ccc(Cl)cc24)-c2ccccc2CC3)c(C)c1	> 50	> 50	> 50	32.5	> 50	> 50	
Cc1cc(NC(=O)c2cc(-c3ccccc3)nc3ccccc23)no1	25.8	> 50	37.9	36.6	46.2	> 50	

Structure (SMILES)	IC50 (HCT-116 [1]) [µM]	IC50 (MRC5) [µM]	IC50 (A549) [µM]	IC50 (SK-OV-3) [µM]	IC50 (MDA-MB-468) [µM]	IC50 (HeLa) [µM]	also measured
COc1ccc(NC(=O)c2cc(-c3ccc(C)cc3)nc3ccccc23)cc1	3.7	47.8	18.5	6.3	35.2	25.2	
COc1cc(NC(=O)c2cc(-c3ccc(C)cc3)nc3ccccc23)cc(OC)c1OC	0.2	31.9	5.7	0.5	10.8	1.6	Activity (HCT-116 [2]): 0.04%; Activity (HCT-116 [3]): 48.17%; inhibition (Homo sapiens): Active; Activity (HCT-116 [4]): 45.26%; inhibition (Bos taurus): Active; Activity (HCT-116 [5]): 7.87%; Activity (HCT-116 [6]): Active; Activity (HCT-116 [7]): 87.2%; Activity (HCT-116 [8]): 46.62%; Activity (HCT-116 [9]): Active; viability at 0.5 µM (HCT-116 [10]): 15.2%; Activity (HCT-116 [11]): 5.21%; Activity (HCT-116 [12]): 39.47%; Activity (HCT-116 [13]): 4.93%
COC(=O)c1sccc1NC(=O)c1cc(-c2ccccc2)nc2ccccc12	22.6	46.3	48.7	20.3	36.8	34.5	
CC[C@]1(O)C[C@@H]2CN(CCc3c([nH]c4ccccc34)[C@@](C(=O)OC)(c3cc4c(cc3OC)N(C)[C@H]3[C@@](O)(C(=O)OC)[C@H](OC(C)=O)[C@]5(CC)C=CCN6CC[C@]43[C@@H]65)C2)C1							inhibition (Homo sapiens): inactive
COc1ccc(NC(=O)c2cc(-c3ccccc3)nc3ccc(F)cc23)cc1	34.2	> 50	> 50	29.7	> 50	> 50	
COc1ccc(NC(=O)c2c3c(nc4ccc(Cl)cc24)-c2ccccc2CC3)cc1	39.5	> 50	> 50	37.6	> 50	> 50	
COc1cccc(NC(=O)c2cc(-c3ccccc3)nc3ccccc23)c1	12.9	43.8	32.5	17.4	34.7	40.5	
COc1ccc(NC(=O)c2cc(-c3ccc(C)cc3)nc3ccc(C)cc23)cc1	10.4	> 50	29.7	8.3	32.4	16.4	
COc1ccc(NC(=O)c2cc(-c3cccc(C)c3)nc3ccccc23)c(C)c1	14.6	> 50	23.6	15.3	32.1	10.4	
COc1ccc(NC(=O)c2cc(-c3ccc(C(F)(F)F)cc3)nc3ccccc23)c(C)c1	47.3	> 50	> 50	> 50	> 50	> 50	
COc1ccc(NC(=O)c2cc(-c3ccccc3)nc3ccccc23)c(C)c1	7.8	> 50	23.7	8.4	20.1	16.4	
COc1ccc(NC(=O)c2cc(-c3ccccc3C)nc3ccccc23)cc1	31.4	> 50	> 50	36.7	> 50	42.8	
COc1ccc(NC(=O)c2cc(-c3ccccc3)nc3ccc(Cl)cc23)c(C)c1	27.4	> 50	> 50	34.2	> 50	> 50	
COc1cc(NC(=O)c2cc(-c3ccc(C)cc3)nc3ccc(C)cc23)cc(OC)c1OC	5.2	42.7	20.3	6.2	37.1	13.5	
COc1cc(NC(=O)c2cc(-c3ccccc3)nc3ccccc23)cc(OC)c1OC	2.7	38.8	17.9	5.4	18.9	12.7	
O=C(NC(Cc1ccccc1)C(=O)OCc1ccccc1)c1cc(-c2ccccc2)nc2ccccc12 (configuration not stated)	36.1	> 50	> 50	> 50	> 50	> 50	
